Measured values: patent US20190209581A1, “DOSAGE REGIMEN FOR TREATMENT OF SOLID TUMORS” (Eli Lilly and Company, priority 2016, published 2019)

Key:
[1] = tested on: A2780 human ovarian cell line; assay: Tumor growth inhibition, A2780 xenograft; type: in vivo; conditions: for % TGI: A2780 in mice
Method: To evaluate in vivo efficacy and effect of 4,4,4-Trifluoro-N-[(1S)-2-[[(7S)-5-(2-hydroxyethyl)-6-oxo-7H-pyrido[2,3-d][3]benzazepin-7-yl]amino]-1-methyl-2-oxo-ethyl]butanamide on inhibition of Notch processing pharmacodynamics (PD), several cell lines- and patient-derived xenograft models are used. A2780 is a human ovarian cell line (Sigma-Aldrich, No. 93112519); SW480 is a human colorectal cell line (ATCC No. CCL-228); HCT 116 is a human colorectal cell line (ATCC No. CCL-247); U-87 MG is a human glioblastoma cell line (ATCC No. HTB-14); A375 is a human malignant melanoma cell line (ATCC No. CRL-1619); K-562 is a human chronic myelogenous leukemia (CML) cell line characterized by the presence of a fusion transcript comprised of the Bcr and Abl1 genes (ATCC No. CCL-243); Jurkat; HEL 92.1.7 is a human erythroleukemia cell line (ATCC No. TIB-180). Each of the cell lines are obtained from the American Type Culture Collection (ATCC) at the ATCC number stated, except the A2780 cell line which is obtained from Sigma-Aldrich at the stated catalog number. The cells are grown in their respective, recommended culture media at 37° C. in 5% CO2 with humidity in the atmosphere. A2780 (2×10^6), SW480 (6×10^6), HCT 116 (6×10^6), U-87 MG (6×10^6), and A-375 (10×10^6) cells in a 1:1 matrigel mix (0.2 mL volume) are implanted by subcutaneous injection in the hind leg of 6-8 weeks of age athymic nude female mice (Harlan Laboratories). K-562 (6×10^6) cells in a 1:1 matrigel mix (0.2 mL volume) are implanted by subcutaneous injection in the hind leg of 6-8 weeks of age CD1 nμ/nμ female mice (Charles River Laboratories). HEL 92.1.7 (7×10^6) in a 1:1 matrigel mix (0.2 mL volume) are implanted by subcutaneous injection in the hind leg of 6-8 weeks of age CB17 severely combined immune deficient female mice (Taconic Farms). Patient-derived tumors are minced into 1-2 mm pieces and mixed with matrigel (1:1) in 0.2 ml volume and implanted by subcutaneous injection in the hind leg of 6-8 weeks of age athymic nude female mice (Harlan Laboratories). Patients-derived tumor models include: human colon carcinoma (EL2144), human triple negative invasive ductal breast carcinoma (EL1997), human colon carcinoma (EL1989, EL 1986), and human glioblastoma (EL 2056) with samples obtained after patient consent and hospital approval from IU Health, Methodist Hospital, Indianapolis, Ind., USA 46206. A total of 7 to 10 mice are used for each group. Just before implantation for A2780, SW480, HEL 92.1.7, A-375, K-562, and patient-derived tumor models, animals are irradiated (450 Total Body Irradiation). Mice are fed ad libitum on normal chow. Treatment is initiated with oral administration (gavage) of compound or vehicle (1% Na-CMC in 0.25% Tween®-80) in 0.2 mL volume when tumor size reached to 150±50 mm^3. At designated time points following treatment, animals are sacrificed by CO2 asphyxiation and cervical dislocation. Tumors are removed and used for PD response analysis. Tumor growth and body weight are monitored over time to evaluate efficacy and signs of toxicity. Bidimensional measurements of tumors are performed twice a week and tumor volumes are calculated based on the following formula: (Tumor Volume)=[(L)×(W2)×(Π/6)] where L is mid-axis length and W is mid-axis width. Tumor volume data are transformed to a log scale to equalize variance across time and treatment groups. The log volume data are analyzed with a two-way repeated measures analysis of variance by time and treatment using the MIXED™ procedures in SAS™ software (version 8.2). The correlation model for the repeated measures is spatial power. Treated groups are compared to the control group at each time point. The MIXED™ procedure is also used separately for each treatment group to calculate adjusted means and standard errors at each time point. Both analyses account for the autocorrelation within each animal and the loss of data that occurs when animals with large tumors are removed from the study early. […]

[2] = tested on: U-87 MG human glioblastoma cell line; assay: Tumor growth inhibition, U-87 MG xenograft; type: in vivo; conditions: U-87 MG in mice, oral 8 mg/kg, (Mon, Wed, Fri)x4; p <0.0001
Method: (§1) To evaluate in vivo efficacy and effect of 4,4,4-Trifluoro-N-[(1S)-2-[[(7S)-5-(2-hydroxyethyl)-6-oxo-7H-pyrido[2,3-d][3]benzazepin-7-yl]amino]-1-methyl-2-oxo-ethyl]butanamide on inhibition of Notch processing pharmacodynamics (PD), several cell lines- and patient-derived xenograft models are used. A2780 is a human ovarian cell line (Sigma-Aldrich, No. 93112519); SW480 is a human colorectal cell line (ATCC No. CCL-228); HCT 116 is a human colorectal cell line (ATCC No. CCL-247); U-87 MG is a human glioblastoma cell line (ATCC No. HTB-14); A375 is a human malignant melanoma cell line (ATCC No. CRL-1619); K-562 is a human chronic myelogenous leukemia (CML) cell line characterized by the presence of a fusion transcript comprised of the Bcr and Abl1 genes (ATCC No. CCL-243); Jurkat; HEL 92.1.7 is a human erythroleukemia cell line (ATCC No. TIB-180). […] Tumor growth and body weight are monitored over time to evaluate efficacy and signs of toxicity. Bidimensional measurements of tumors are performed twice a week and tumor volumes are calculated based on the following formula: (Tumor Volume)=[(L)×(W2)×(Π/6)] where L is mid-axis length and W is mid-axis width. […] The log volume data are analyzed with a two-way repeated measures analysis of variance by time and treatment using the MIXED™ procedures in SAS™ software (version 8.2). […]

[3] = tested on: A375 human malignant melanoma cell line; assay: Tumor growth inhibition, A-375 xenograft; type: in vivo; conditions: A-375 in mice, oral 8 mg/kg, (Mon, Wed, Fri)x4; p NS
Method: as §1

[4] = tested on: human triple negative invasive ductal breast carcinoma (EL1997); assay: Tumor growth inhibition, patient-derived tumor model EL1997; type: in vivo; conditions: EL1997 in mice, oral 10 mg/kg (Q2Dx7), 11-days OFF, 8 mg/kg (Mon, Wed, Fri)x4; p <0.0001
Method: as §1

[5] = tested on: human colon carcinoma (EL1989); assay: Tumor growth inhibition, patient-derived tumor model EL1989; type: in vivo; conditions: EL1989 in mice, oral 10 mg/kg (Q2Dx7), 11-days OFF, 8 mg/kg (Mon, Wed, Fri)x3; p <0.0001
Method: as §1

[6] = tested on: human glioblastoma (EL 2056); assay: Tumor growth inhibition, patient-derived tumor model EL2056; type: in vivo; conditions: EL2056 in mice, oral 8 mg/kg, (Mon, Wed, Fri)x5; p <0.0001
Method: as §1

[7] = tested on: human colon carcinoma (EL 1986); assay: Tumor growth inhibition, patient-derived tumor model EL1986; type: in vivo; conditions: EL1986 in mice, oral 8 mg/kg, (Mon, Wed, Fri)x5; p <0.0001
Method: as §1

[8] = Atropisomer equilibrium in solution by 1H NMR and LC-MS; type: physicochemical; conditions: ambient temperature, after 24 hours
Method: In aqueous solutions, 8-9% of atropisomer 2 (minor atropisomer) is detected by ^1H NMR and LC-MS in equilibrium with atropisomer 1 (major atropisomer) at ambient temperature after 24 hours. In organic solvents, at ambient temperature after 24 hours, approximately 1-2% of atropisomer 2 is detected by ^1H NMR and LC-MS in equilibrium with atropisomer 1. Although detectable by ^1H NMR and LC-MS analysis, atropisomer 2 is not isolable.

C[C@H](NC(=O)CCC(F)(F)F)C(=O)N[C@@H]1C(=O)N(CCO)c2ncccc2-c2ccccc21 [Compound 1, 4,4,4-trifluoro-N-[(1S)-2-[[(7S)-5-(2-hydroxyethyl)-6-oxo-7H-pyrido[2,3-d][3]benzazepin-7-yl]amino]-1-methyl-2-oxo-ethyl]butanamide]
% TGI ([1]; oral 1.5 mg/kg, QDx26, p <0.05 to <0.01): 33.36 (<0.05 to % | % TGI ([1]; oral 3 mg/kg, (BID)QDx7 + (BID)Q2Dx7, p <0.0001): 72.35 (<0.0001) % | % TGI ([1]; oral 3 mg/kg, Q2Dx13, p <0.05 to <0.01): 36.65 (<0.05 to % | % TGI ([1]; oral 3 mg/kg, QDx21, p <0.0001): 46.60 (<0.0001) % | % TGI ([1]; oral 6 mg/kg, Q2Dx13, p <0.05 to <0.01): 36.33 (<0.05 to % | % TGI ([1]; oral 7 mg/kg, Q2Dx13, p <0.0001): 56.95 (<0.0001) % | % TGI ([1]; oral 8 mg/kg, Q2Dx13, p <0.0001): 68.60 (<0.0001) % | % TGI ([1]; oral 10 mg/kg, Q2Dx11, p <0.0001): 56.55 (<0.0001) % | % TGI ([1]; oral 10 mg/kg, Q2Dx13, p <0.0001): 51.11 (<0.0001) % | % TGI ([1]; oral 10 mg/kg, Q3Dx8, p <0.0001): 32.99 (<0.0001) % | Effect of alternative dosing regimens on tumor growth inhibition ([1]; xenograft models of Table 5): more frequent dosing affords greater efficacy | % TGI [2]: 53.33 (<0.0001) % | % TGI [3]: 28.47 (NS) % | % TGI [4]: 80.28 (<0.0001) % | % TGI [5]: 70.42 (<0.0001) % | % TGI [6]: 59.05 (<0.0001) % | % TGI [7]: 62.00 (<0.0001) % | atropisomer 2 (minor atropisomer) in equilibrium with atropisomer 1 ([8]; aqueous solutions): 8-9% | atropisomer 2 (minor atropisomer) in equilibrium with atropisomer 1 ([8]; organic solvents): 1-2%
